Measured values published in US20040106804A1 (RICHTER GEDEON VEGYESZETI GYAR RT., priority 2001, published 2004).

Settings: speed depends on the conditions of the dehydration

OC(Cn1cncn1)(Cn1cncn1)c1ccc(F)cc1F [monohydrate, 2-(2,4-Difluorophenyl)-1,3-bis(1,2,4-triazole-1-yl)-propane-2-ol Monohydrate]
temperature at which the monohydrate is transformed into anhydrous fluconazole ("anhydrate"): 40-90 °C
